Read-outs that look alike come from different tables or passages of the source.
Columns and labels:
dopamine D2LR = dopamine D2LR (Homo sapiens, UniProt P14416); test: Radioligand binding assay, [3H]-raclopride displacement; settings: mean ± SD from two independent measurements; read-out: Ki D2
Procedure: (§1) Cell pellets were thawed and homogenized in 10 vol of assay buffer using an Ultra Turrax tissue homogenizer and centrifuged twice at 35 000 g for 15 min at 4 °C, with incubation for 15 min at 37 °C in between. The composition of the assay buffers was as follows: for 5-HT1AR: 50 mM Tris HCl, 0.1 mM EDTA, 4 mM MgCl2, 10 μM pargyline and 0.1% ascorbate; for 5-HT2AR: 50 mM Tris HCl, 0.1 mM EDTA, 4 mM MgCl2 and 0.1% ascorbate; for 5- HT7bR: 50 mM Tris HCl, 4 mM MgCl2, […] and 0.1% ascorbate; and for dopamine D2LR: 50 mM Tris HCl, 1 mM EDTA, 4 mM MgCl2, 120 mM NaCl, 5 mM KCl, 1.5 mM CaCl2 and 0.1% ascorbate. All assays were incubated in a total volume of […] in 96-well microtiter plates for 1 h at 37 °C, except 5-HT2AR which was incubated at 27 °C. The process of equilibration was terminated by rapid filtration through Unifilter plates with a 96-well cell harvester, and radioactivity retained on the filters was quantified on a Microbeta plate reader (PerkinElmer, USA). For displacement studies, the assay samples contained as radioligands (PerkinElmer, USA): 2.5 nM [^3H]-8-OH-DPAT (135.2 Ci/mmol) for 5-HT1AR; 1 nM [3H]-ketanserin (53.4 Ci/mmol) for 5- HT2AR; 0.8 nM [3H]-5- CT (39.2 Ci/mmol) for 5-HT7R or 2.5 nM [3H]-raclopride (72 Ci/mmol) for D2LR. Nonspecific binding was defined with […] of 5-HT in 5-HT7R binding experiments, whereas […] were used in 5-HT2AR and D2L assays, respectively. Each compound was tested in triplicate at 7 concentrations (10^–10–10^–4 M). The inhibition constants (Ki) were calculated using the Cheng–Prusoff equation.[48] Results were expressed as means of at least two separate experiments.

immobility time = test: Forced swim test (FST, Porsolt's test) in mice; format: in vivo; settings: 60 min before test
Procedure: (§2) The behavioral experiments were performed on male BalbC mice weighing 20–25 g, n = 333. The animals were purchased from the Animal House at the Faculty of Pharmacy, Jagiellonian University Medical College, Krakow, Poland. Mice were kept in groups of ten in Makrolon type 3 cages (dimensions 26.5 × 15 × 42 cm). The animals were kept in an environmentally controlled room (ambient temperature 22 ± 2 °C; relative humidity 50–60%; 12:12 light: dark cycle; and lights on at 8:00). They were allowed to acclimatize with the environment enriched by nesting material, tooth grinding material, houses, and toys for 1 week before commencement of the experiments. During acclimatization, mice were accustomed to the presence of female experimenters and their appropriate manner of animals’ restraint, i.e., cupping each separate mouse in open hands, according to the 3Rs recommendations (handling).[50],[51] Standard laboratory food (Sniff M-Z) and filtered water were freely available. All the experiments were conducted in the light phase between 9 AM and 2 PM. Experimental groups consisted of 6–10 randomly selected animals, depending on the experiment, and each animal was used only once. The experiments were performed by an observer who was unaware of the treatment administered. All the experimental procedures with mice were carried out under EU Directive 2010/63/EU and were approved by the Local Ethics Commission for Animal Experiments of Jagiellonian University in Krakow (Approval nos.:297/2019).
(§3) Compounds were injected once intraperitoneally (i.p.) 60 min before tests, at a volume of 10 mL/kg. Control animals received a vehicle injection according to the same schedule.
The FST experiment was carried out according to the method of Porsolt et al.[52] The total duration of immobility was recorded during the last 4 min of this 6 min period. The reduction of immobility time compared to the control was a measure of antidepressant properties of the tested compound. A mouse was regarded as immobile when it remained floating on water, making only small movements to keep its head above it.

5-HT7R [1] = molecular target: T1, 5-HT7R (Homo sapiens, UniProt P34969); test: Radioligand binding assay, [3H]-5-CT displacement; settings: mean ± SD from two independent measurements; read-out: Ki 5-HT7
Procedure: as §1

locomotor activity = test: Spontaneous locomotor activity in mice; format: in vivo
Procedure: as §2, §3
Locomotor activity was recorded with an Opto M3 multichannel activity monitor (Columbus Instruments, Columbus, USA). […] According to the 3Rs recommendations,[54] locomotor activity was assessed for the minimal active doses obtained in FST and/or FPT to ensure that detected antidepressant-/anxiolytic-like effects are not the result of increased motility of mice.

5-HT1AR = molecular target: T2, 5-HT1AR (Homo sapiens, UniProt P08908); test: Radioligand binding assay, [3H]-8-OH-DPAT displacement; settings: mean ± SD from two independent measurements; read-out: Ki 5-HT1A
T2 sequence (P08908 1-422): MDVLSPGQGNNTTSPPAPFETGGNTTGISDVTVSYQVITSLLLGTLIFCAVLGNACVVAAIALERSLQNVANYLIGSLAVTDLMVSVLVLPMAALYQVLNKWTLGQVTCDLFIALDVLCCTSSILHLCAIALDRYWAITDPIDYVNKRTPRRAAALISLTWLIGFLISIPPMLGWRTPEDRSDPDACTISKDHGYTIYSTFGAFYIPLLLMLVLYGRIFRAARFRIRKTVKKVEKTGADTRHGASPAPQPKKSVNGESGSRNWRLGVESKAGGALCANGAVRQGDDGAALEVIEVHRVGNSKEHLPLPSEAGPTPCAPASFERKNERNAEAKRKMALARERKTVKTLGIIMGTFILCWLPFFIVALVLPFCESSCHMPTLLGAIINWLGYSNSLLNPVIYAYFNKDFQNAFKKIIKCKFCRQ
Procedure: as §1

5-HT7R [2] = molecular target: T1, 5-HT7R; set-up: method as in PMID 29439902, PMID 29425815, PMID 28886235, PMID 26900658; settings: earlier results for the racemic hits; read-out: 5-HT7R Ki of reference hit compounds; cited from earlier work
punished crossings = test: Four-plate test (FPT) in mice; format: in vivo
Procedure: as §2, §3
The four-plate apparatus (Bioseb, Pinellas Park, USA) was used for tests. Following a 15 s habituation period, the animal’s motivation to explore a novel environment is suppressed by an electric foot shock (0.8 mA, 0.5 s) every time it moves from one plate to another during a 1 min test session. This action is referred to as a “punished crossing” and is followed by a 3 s shock interval, during which the animal can move across plates without receiving a shock.[53]

T1 sequence (P34969 1-432): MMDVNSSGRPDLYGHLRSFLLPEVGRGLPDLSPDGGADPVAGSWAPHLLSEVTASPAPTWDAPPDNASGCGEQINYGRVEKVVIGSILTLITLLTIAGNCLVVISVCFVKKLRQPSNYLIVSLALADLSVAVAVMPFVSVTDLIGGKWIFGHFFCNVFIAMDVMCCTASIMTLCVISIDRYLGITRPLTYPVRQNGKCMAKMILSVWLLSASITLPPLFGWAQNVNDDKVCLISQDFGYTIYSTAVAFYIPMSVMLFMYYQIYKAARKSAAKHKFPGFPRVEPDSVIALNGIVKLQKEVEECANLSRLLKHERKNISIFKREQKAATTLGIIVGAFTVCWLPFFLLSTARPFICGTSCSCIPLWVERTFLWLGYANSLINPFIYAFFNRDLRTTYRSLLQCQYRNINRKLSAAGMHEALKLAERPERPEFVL
dopamine D2LR, sequence (P14416 whole entry): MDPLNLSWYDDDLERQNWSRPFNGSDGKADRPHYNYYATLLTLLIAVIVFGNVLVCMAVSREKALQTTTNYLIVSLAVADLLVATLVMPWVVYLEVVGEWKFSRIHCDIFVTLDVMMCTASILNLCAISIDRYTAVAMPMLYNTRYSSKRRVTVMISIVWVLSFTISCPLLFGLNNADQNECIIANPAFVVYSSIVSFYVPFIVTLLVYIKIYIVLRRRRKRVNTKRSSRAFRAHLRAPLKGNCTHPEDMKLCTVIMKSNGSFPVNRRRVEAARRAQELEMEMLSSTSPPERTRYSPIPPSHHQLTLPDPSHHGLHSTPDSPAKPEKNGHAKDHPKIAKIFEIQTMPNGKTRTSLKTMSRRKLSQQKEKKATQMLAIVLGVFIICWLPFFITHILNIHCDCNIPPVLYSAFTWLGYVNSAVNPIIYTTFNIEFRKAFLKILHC

Ki (dopamine D2LR): 0.261 ± 0.038 µM
Ki (5-HT7R [1]): 0.079 ± 0.006 µM
locomotor activity number of crossings ± SEM during 3–6 min (locomotor activity; 0.312 mg/kg i.p.): 108.00 ± 42.04; NS
locomotor activity number of crossings ± SEM during 1 min (locomotor activity; 0.312 mg/kg i.p.): 9.75 ± 5.45; NS
locomotor activity number of crossings ± SEM during 60 min (locomotor activity; 0.312 mg/kg i.p.): 702.75 ± 122.53; NS
locomotor activity number of crossings ± SEM during 3–6 min (locomotor activity; 2.5 mg/kg i.p.): 211.50 ± 29.38; NS
locomotor activity number of crossings ± SEM during 1 min (locomotor activity; 2.5 mg/kg i.p.): 16.50 ± 6.12; NS
locomotor activity number of crossings ± SEM during 60 min (locomotor activity; 2.5 mg/kg i.p.): 2482.75 ± 587.23; NS
Ki (5-HT1AR): 5.57 ± 1.41 µM
SMILES: CC1(c2ccc(F)cc2)NC(=O)N(CC(O)CN2CCN(C(c3ccccc3)c3ccccc3)CC2)C1=O (centres unmarked) [Compound 2]
decrease of immobility time vs vehicle (immobility time; 0.312 mg/kg i.p.): 25%
decrease of immobility time vs vehicle (immobility time; 0.63 mg/kg i.p.): about 40%
decrease of immobility time vs vehicle (immobility time; 1.25 mg/kg i.p.): about 40%
decrease of immobility time vs vehicle (immobility time; 2.5 mg/kg i.p.): about 40%
decrease of immobility time vs vehicle (immobility time; 5 mg/kg i.p.): 26%
Ki (5-HT7R [2]): < 0.1 µM
increase of number of punished crossings (punished crossings; 2.5 mg/kg i.p.): 62%
increase of number of punished crossings vs vehicle (punished crossings; i.p., active doses): about 60%

Source: publication PMC11587507, “The Importance of Stereochemistry in 5-HT7R Modulation—A Case Study of Hydantoin Derivatives” (ACS Chemical Neuroscience, 2024)
